Laboratory results from patent US9226942B2, “Expanding hematopoietic stem cells” (priority 2010, dated 2016).

Columns and labels:
VentX = test: Quantitative (RT-)PCR of VentX expression in CD34+ cells; assay type: cell-based, human
Source text: Bone marrow (BW) samples were obtained from discarded femoral head tissue after hip replacement surgery from Brigham and Women's Hospital, with institutional IRB approval. After Ficoll separation of mononuclear cells, CD34+ cells were enriched using magnetically activated cell sorting CD34^+ progenitor kit (Miltenyi Biotec). The purity of the BW CD34+ cells was over 95%, as assessed by flow cytometry as described in Rizo et al., 2008.
Total RNA was isolated by the TRIzol method, and same amount of RNA was used for first-strand cDNA synthesis with SuperSript First-Strand Synthesis System (Invitrogen) according to the manufacturer's protocol. To determine VentX mRNA level, the cDNA was then used for real-time PCR of VentX with primers: 5′-CCGTCAGCATCAAGGAGG-3′ (SEQ ID NO: 19) and 5′-CTGGACCTCTGAGAGCTGC-3′ (SEQ ID NO: 20). Real-time PCR was also performed with SYBR Green on a LightCycler® 480 system (480 Real-Time PCR System; Roche).
Briefly, the lentiviral vector pHAGE-CMV-eGFPW that expresses a shRNA targeting VentX (pHAGE-shVentX) was used for the transduction of bone marrow CD34+ cells. This lentiviral vector contains an internal ribosome entry site (IRES) that allows simultaneous expression of GFP to monitor transduction rate or for cell sorting. The corresponding DNA sequence of VentX shRNA is SEQ ID NO: 12 or 14. […]

human CD34+ cells = test: SR1-mediated expansion of human CD34+ cells; assay type: cell-based
BW CD34+ cells = test: Cytokine supplemented stroma-free liquid culture of CD34+ cells (cell counts, FACS); assay type: cell-based, human
CD34+ cells = test: In vitro colony-forming cell (CFC) assay; assay type: cell-based, human
Procedure: Assays for in vitro colony-forming cells (CFCs) were performed by plating sorted GFP positive CD34+ cells (1×10^4 per dish) in triplicates in complete methylcellulose medium (Methocult G F, H4434; Stem Cell Technologies), which contains a mixture of recombinant human cytokines (SCF, IL-3, GM-CSF, and erythropoietin). Colonies were counted after 14 days of incubation at 37° C. and classified according to standard criteria.
Human BW CD34+ cells were obtained as described in Example 1. These cells were transfected with pCS2-GFP or pCS2-GFPVentX plasmid using the Human CD34+ cell Nucleofector Kit (Lonza) as described above. GFP-positive cells were sorted by FACSAria high-speed sorter after transfected for 24 hours.

[1] = colonies counted after 14 days, vs GFP control

| Compound | expression of VentX in the CD34+ cells (VentX) | expansion of CD34+ cells (human CD34+ cells) | expansion of HSCs in comparison with siGFP-transfected cells (BW CD34+ cells; 2 weeks culture) [fold] | percentage of CD34+ cells (BW CD34+ cells; siRNA-transfected cells) | knockdown of VentX in CD34+ cells (VentX; quantitative PCR / RT-PCR) [%] | increase in total number of progeny cells (CD34+ cells; based on the CFC assay) [fold] | increase in formation of BFU-E/CFU-E colonies (CD34+ cells; [1]) [fold] | increase in formation of CFU-GM colonies (CD34+ cells; [1]) [fold] |
| --- | --- | --- | --- | --- | --- | --- | --- | --- |
| CC(C)n1cnc2c(NCCc3ccc(O)cc3)nc(-c3csc4ccccc34)nc21 [SR1, StemRegenin 1, reference compound] | inhibited | increased | – | – | – | – | – | – |
| siVentX: short oligonucleotides targeting VentX, siRNA SEQ ID NO: 5 (UUCAGAAUCGCCGCAUGAAACACAAACGG) (listed as RNA, chemistry not given here) | – | – | ~2 | an increase | ~70 | ~2 | ~2 | ~2 |
